Measured values reported in ChEMBL document CHEMBL1201862, “PubChem BioAssay data set” (2004).
Active and inactive are the calls of the source.

How the values were obtained:
[1] = cells; type: functional, cell-based
[2] = target: T1, Trace amine-associated receptor 1 (Homo sapiens, UniProt Q96RJ0); experiment: Fluorescence-based cell-based high throughput dose response assay to identify agonists of the human trace amine associated receptor 1 (TAAR1).; type: functional
T1 sequence (Q96RJ0 whole entry): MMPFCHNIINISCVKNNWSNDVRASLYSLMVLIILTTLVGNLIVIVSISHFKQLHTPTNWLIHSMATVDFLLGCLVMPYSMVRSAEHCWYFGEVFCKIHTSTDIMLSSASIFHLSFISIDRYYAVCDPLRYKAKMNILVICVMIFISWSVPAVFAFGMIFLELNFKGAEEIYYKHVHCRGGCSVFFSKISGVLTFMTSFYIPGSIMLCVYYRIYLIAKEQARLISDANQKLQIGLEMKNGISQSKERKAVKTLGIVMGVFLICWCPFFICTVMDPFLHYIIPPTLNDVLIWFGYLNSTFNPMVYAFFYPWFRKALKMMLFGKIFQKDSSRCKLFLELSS

[3] = viability loss in Vero cells – cytotoxicity control for Vif-APOBEC3G degradation inhibitor project, dose response (AID 1117358); type: functional; settings: Vero
[4] = cells; type: functional, cell-based; remark: listed apart in the source
[5] = target: T1, Trace amine-associated receptor 1; experiment: Counterscreen for agonists of the human trace amine associated receptor 1 (hTAAR1): Fluorescence-based cell-based high throughput dose response assay to identify hTAAR1 agonist that also desensitize TAAR1 receptor response.; type: functional
[6] = target: T2, Corticotropin-releasing factor receptor 2/Corticotropin-releasing factor-binding protein (Homo sapiens, UniProt P24387+Q13324); experiment: activators of CRF receptor 2 with binding protein – uHTS hits, confirmation (AID 602473); type: functional; settings: read-out: EC50_Mean
T2 sequence (Q13324 whole entry): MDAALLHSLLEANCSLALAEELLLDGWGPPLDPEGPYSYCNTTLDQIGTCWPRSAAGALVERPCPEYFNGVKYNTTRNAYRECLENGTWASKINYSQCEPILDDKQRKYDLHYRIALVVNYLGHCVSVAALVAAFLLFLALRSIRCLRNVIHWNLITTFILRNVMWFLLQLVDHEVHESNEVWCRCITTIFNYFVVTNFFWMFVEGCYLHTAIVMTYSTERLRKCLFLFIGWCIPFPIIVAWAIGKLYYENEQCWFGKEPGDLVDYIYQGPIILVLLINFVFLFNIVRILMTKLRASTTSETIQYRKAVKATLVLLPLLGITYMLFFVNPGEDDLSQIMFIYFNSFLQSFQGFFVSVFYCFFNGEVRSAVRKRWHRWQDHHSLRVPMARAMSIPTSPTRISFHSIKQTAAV
T2 sequence (P24387 whole entry): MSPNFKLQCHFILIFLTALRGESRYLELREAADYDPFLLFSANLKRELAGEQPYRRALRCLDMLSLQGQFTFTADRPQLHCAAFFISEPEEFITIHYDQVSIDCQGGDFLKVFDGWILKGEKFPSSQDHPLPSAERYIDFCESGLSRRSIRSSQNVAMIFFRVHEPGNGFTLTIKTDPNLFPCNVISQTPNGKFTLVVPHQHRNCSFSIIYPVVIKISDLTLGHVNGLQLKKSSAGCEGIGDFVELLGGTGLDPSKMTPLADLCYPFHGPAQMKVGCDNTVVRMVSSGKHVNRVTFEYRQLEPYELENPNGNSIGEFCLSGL

[7] = target: T3, Short transient receptor potential channel 4 (Mus musculus, UniProt Q9QUQ5); experiment: calcium entry via TRPC4 opening agents – cell-based, HEK293 TRPC4/mu-opioid, Fluo-4 calcium, dose response (AID 434937); type: functional
T3 sequence (Q9QUQ5 whole entry): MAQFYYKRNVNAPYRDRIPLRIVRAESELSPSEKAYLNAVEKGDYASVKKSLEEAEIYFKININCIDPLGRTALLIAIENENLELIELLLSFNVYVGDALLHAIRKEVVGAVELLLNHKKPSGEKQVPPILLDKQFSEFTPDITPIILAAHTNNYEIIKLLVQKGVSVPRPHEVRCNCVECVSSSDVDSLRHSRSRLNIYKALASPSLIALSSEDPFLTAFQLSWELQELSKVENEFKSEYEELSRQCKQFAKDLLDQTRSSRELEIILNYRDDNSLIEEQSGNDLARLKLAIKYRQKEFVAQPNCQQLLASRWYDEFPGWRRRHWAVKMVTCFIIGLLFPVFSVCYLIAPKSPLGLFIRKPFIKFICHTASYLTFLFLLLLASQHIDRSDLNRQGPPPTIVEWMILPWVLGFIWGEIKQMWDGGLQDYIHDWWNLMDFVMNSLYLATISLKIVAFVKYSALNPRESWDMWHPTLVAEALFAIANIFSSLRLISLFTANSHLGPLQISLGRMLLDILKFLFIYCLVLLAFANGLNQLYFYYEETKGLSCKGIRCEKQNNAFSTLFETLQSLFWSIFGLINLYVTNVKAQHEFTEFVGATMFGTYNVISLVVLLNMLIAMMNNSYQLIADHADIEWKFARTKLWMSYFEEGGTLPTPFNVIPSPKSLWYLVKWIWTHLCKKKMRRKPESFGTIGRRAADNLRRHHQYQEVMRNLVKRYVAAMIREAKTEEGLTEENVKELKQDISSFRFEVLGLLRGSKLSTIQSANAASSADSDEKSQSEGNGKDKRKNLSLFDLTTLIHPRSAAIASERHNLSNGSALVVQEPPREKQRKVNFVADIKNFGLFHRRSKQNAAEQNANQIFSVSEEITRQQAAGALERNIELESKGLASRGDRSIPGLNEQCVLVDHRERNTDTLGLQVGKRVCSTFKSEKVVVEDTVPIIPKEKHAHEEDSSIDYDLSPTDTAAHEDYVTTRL

[8] = target: Genome polyprotein (dengue virus type 2, UniProt P29990); experiment: flavivirus cap methylation enzyme inhibition – biochemical, confirmation dose response, primary screen (AID 588689); type: functional
Chain of Genome polyprotein (P29990 2492-3391 limits assumed): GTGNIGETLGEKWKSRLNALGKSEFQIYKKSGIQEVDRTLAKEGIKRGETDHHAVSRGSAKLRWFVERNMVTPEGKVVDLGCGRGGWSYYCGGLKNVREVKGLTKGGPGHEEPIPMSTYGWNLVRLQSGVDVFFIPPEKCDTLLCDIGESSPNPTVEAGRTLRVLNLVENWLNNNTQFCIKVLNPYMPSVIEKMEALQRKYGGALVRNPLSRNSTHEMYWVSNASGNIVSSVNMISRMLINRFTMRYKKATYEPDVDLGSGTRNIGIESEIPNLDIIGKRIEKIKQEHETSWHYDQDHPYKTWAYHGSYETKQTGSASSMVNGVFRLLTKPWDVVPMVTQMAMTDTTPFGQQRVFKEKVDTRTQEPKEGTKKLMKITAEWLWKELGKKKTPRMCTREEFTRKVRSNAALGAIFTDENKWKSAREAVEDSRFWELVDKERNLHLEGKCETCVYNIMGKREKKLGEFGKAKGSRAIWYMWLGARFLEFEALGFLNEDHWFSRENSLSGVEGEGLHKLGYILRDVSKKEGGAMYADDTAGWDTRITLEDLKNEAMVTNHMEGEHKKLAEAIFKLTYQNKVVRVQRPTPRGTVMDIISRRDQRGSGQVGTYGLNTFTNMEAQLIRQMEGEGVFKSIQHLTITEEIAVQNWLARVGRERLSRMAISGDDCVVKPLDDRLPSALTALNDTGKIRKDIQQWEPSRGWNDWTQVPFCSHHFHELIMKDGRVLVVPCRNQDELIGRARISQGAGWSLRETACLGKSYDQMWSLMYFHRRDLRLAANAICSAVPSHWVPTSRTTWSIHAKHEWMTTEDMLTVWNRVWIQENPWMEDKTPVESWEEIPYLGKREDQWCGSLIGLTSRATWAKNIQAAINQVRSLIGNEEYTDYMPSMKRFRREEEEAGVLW

[9] = target: T4, Fatty acid synthase (Homo sapiens, UniProt P49327); experiment: inhibition of human FAS-TE enzyme activity – biochemical, endpoint fluorescence intensity, uHTS hits, dose response (AID 624327); type: functional;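 note: fluorescence from hydrolysis of an O-methyl fluorescein acyl ester substrate by the enzyme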
T4 sequence (P49327 whole entry): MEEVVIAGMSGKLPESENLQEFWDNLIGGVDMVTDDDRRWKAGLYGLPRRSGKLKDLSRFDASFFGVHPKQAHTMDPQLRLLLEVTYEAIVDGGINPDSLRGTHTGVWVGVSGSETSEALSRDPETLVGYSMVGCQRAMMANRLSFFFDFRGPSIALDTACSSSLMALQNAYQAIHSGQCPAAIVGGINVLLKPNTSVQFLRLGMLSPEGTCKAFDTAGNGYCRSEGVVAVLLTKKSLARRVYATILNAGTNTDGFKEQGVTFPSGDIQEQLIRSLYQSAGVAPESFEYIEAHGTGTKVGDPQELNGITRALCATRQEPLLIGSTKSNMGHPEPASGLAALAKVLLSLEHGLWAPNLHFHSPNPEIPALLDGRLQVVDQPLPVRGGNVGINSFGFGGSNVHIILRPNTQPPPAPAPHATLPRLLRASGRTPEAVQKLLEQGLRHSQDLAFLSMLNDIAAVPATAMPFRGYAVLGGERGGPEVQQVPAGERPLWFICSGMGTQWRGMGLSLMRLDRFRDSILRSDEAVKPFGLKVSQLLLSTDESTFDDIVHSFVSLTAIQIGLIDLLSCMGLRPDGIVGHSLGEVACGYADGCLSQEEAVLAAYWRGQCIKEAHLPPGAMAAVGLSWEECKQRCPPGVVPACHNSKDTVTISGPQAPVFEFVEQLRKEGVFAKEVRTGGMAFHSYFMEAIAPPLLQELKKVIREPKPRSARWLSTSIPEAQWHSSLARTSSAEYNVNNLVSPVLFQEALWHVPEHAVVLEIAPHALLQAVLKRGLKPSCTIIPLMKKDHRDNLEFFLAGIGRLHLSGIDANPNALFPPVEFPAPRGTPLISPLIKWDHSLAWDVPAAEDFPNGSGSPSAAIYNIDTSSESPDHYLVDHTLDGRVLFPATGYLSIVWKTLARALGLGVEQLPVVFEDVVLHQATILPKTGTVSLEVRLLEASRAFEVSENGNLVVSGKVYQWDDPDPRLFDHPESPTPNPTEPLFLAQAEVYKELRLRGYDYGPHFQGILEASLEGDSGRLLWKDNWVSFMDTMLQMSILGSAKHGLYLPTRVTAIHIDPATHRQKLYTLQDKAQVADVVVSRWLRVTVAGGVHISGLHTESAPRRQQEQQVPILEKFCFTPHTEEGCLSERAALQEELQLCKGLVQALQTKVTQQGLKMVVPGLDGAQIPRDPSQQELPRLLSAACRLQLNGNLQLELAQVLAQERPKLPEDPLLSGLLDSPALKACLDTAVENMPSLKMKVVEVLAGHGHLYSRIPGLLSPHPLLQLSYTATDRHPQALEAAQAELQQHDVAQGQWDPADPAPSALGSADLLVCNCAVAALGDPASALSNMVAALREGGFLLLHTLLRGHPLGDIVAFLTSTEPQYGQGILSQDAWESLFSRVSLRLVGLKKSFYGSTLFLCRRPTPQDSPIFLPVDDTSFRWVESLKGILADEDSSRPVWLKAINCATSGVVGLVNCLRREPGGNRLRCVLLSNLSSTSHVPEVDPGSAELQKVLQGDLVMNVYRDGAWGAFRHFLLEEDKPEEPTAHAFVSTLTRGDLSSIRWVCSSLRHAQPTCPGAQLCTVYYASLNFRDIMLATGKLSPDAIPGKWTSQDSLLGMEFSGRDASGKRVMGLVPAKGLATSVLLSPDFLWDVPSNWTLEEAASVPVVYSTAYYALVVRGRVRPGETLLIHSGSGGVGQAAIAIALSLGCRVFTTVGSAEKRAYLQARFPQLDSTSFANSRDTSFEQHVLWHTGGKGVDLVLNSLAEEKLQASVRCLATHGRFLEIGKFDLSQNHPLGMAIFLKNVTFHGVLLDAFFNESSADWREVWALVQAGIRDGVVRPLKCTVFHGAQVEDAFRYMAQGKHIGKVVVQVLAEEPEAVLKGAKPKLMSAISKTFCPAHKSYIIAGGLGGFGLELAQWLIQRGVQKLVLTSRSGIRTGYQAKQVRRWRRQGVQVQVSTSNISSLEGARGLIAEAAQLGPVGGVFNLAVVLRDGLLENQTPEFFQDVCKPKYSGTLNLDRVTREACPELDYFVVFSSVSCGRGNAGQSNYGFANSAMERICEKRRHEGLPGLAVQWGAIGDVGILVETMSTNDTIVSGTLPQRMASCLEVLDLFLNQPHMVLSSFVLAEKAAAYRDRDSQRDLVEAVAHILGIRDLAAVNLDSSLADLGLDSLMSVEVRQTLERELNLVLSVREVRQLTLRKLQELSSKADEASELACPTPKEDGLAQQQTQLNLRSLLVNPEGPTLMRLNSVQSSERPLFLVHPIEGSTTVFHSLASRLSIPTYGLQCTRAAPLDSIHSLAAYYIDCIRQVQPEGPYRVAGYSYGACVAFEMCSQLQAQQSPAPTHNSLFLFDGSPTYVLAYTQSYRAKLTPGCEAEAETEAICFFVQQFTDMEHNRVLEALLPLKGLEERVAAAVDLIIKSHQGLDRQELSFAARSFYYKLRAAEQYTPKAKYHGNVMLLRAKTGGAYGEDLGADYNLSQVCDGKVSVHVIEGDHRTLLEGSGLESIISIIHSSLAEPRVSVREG

[10] = target: Large T antigen (Simian virus 40, UniProt P03070); type: functional, Betapolyomavirus macacae;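 note: Confirmatory-stage PubChem screen for compounds that inhibit SV40 T antigen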
[11] = target: T4, Fatty acid synthase; experiment: inhibition of human FAS-TE enzyme activity – biochemical, kinetic fluorescence intensity, dose response (AID 624326); type: functional;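 note: rate of fluorescence rise from hydrolysis of a fluorogenic O-methyl fluorescein ester substrate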
[12] = target: Induced myeloid leukemia cell differentiation protein Mcl-1 (Homo sapiens, UniProt Q07820); type: functional
Chain of Induced myeloid leukemia cell differentiation protein Mcl-1 (Q07820 whole entry): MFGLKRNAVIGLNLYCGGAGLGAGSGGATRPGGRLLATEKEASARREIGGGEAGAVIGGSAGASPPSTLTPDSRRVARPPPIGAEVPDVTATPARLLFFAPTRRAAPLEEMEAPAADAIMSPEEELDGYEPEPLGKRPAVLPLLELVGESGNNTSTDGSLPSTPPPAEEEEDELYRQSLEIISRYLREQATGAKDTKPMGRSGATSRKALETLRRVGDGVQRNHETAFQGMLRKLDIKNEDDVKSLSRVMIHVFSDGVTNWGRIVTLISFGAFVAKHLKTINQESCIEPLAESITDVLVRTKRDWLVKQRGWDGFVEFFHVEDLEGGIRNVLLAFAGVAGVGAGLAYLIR

[13] = MIN6 cell viability loss – mouse insulinoma, cytotoxicity control, dose response (AID 2122); type: functional;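 note: confirmatory high-throughput counterscreen run to flag cytotoxic compounds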
[14] = decrease of insulin promoter-GFP reporter – imaging, high-content screening, mouse beta cells (AID 1628); type: functional; settings: MIN6
[15] = Luminescence Cell-Based Dose Retest to Confirm Inhibitors of Cancer Stem Cells. [Related pubchem assays (depositor defined):AID2717, AID2721]; type: functional; settings: Homo sapiens
[16] = HIV-1 Vif–A3G interaction blockers – biochemical, TR-FRET, GST-Vif 1-94, biotin-A3G peptide, dose response retest, primary screen (AID 1117319); type: functional;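 note: TR-FRET signal of purified GST-Vif binding a biotinylated A3G peptide; inhibitors lower the FRET signal by blocking Vif and A3G binding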
[17] = NIH-3T3 fibroblast cytotoxicity, dose response, cytotoxicity control, cell-based, fluorescence, Alamar Blue, secondary assay (AID 2327); type: functional;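 note: NIH-3T3 mouse fibroblasts cultured with fluconazole at 8 µg/mL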
[18] = A2780 cell killing – plate reader, dry powder samples, cytotoxicity control, dose response (AID 743046); type: functional, cell-based
[19] = target: Paired box protein Pax-8 (Homo sapiens, UniProt Q06710); experiment: PAX8 transcriptional activity inhibition in RMG-I – RMG-I cells, luciferase, cherry-pick, dose response (AID 687027); type: functional, cell-based;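 note: luciferase reporter driven by Pax8 target thyroperoxidase promoter measured by SteadyGlo luminescence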
Chain of Paired box protein Pax-8 (Q06710 whole entry): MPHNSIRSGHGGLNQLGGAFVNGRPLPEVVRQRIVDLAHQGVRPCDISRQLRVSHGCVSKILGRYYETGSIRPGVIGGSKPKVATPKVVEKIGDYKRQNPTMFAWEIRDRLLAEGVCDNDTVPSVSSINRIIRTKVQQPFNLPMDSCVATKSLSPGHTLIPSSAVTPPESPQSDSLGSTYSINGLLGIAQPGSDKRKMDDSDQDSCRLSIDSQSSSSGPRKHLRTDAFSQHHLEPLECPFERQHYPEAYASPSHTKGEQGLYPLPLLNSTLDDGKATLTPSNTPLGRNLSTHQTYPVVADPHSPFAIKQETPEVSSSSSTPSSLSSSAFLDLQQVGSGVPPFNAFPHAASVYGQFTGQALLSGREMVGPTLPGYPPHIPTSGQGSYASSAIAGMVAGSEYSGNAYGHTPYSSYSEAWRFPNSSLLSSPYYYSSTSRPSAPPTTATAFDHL

[20] = OVCAR8 cell viability loss – plate reader, dry powder samples, PAX8 project, dose response (AID 743197); type: functional, cell-based; settings: OVCAR-8
[21] = target: T5, Heat shock factor protein 1 (Mus musculus, UniProt P38532); experiment: enhancement of HSF1-driven luciferase signal – cell-based, NIH3T3, luminescence, dose retest, confirmation (AID 435004); type: functional;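 note: stress induced by proteasome inhibitor MG132 added 30 min after compound; luciferase reporter driven by HSF1 response element in NIH3T3 cells; actives raise luminescence as potentiators of the MG132 stress response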
T5 sequence (P38532 whole entry): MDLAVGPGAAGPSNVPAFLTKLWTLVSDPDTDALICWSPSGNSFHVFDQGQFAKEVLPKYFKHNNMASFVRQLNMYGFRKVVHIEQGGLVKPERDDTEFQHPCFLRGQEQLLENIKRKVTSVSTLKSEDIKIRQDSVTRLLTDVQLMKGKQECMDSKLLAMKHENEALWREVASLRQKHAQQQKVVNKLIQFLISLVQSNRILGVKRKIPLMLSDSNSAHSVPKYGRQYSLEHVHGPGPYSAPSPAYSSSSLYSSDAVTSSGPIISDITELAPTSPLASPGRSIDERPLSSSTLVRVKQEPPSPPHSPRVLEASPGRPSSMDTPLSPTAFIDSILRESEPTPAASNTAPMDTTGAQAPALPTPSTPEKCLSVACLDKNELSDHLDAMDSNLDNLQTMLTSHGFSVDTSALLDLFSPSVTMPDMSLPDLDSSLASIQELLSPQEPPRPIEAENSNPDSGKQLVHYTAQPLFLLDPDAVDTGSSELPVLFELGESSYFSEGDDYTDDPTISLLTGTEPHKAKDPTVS

[22] = P. falciparum Dd2 growth inhibitors, dose response, SYBR Green, cherry-picked samples (AID 1159567); type: functional, cell-based
[23] = target: Cytochrome P450 2C9 (Homo sapiens, UniProt P11712)
[24] = target: Cytochrome P450 2C19 (Homo sapiens, UniProt P33261); experiment: Cytochrome panel assay with activity outcomes. Panel member name: p450-cyp2c19 Compounds with AC50 equal or less than 10 uM are considered active; type: functional
Chain of Cytochrome P450 2C19 (P33261 whole entry): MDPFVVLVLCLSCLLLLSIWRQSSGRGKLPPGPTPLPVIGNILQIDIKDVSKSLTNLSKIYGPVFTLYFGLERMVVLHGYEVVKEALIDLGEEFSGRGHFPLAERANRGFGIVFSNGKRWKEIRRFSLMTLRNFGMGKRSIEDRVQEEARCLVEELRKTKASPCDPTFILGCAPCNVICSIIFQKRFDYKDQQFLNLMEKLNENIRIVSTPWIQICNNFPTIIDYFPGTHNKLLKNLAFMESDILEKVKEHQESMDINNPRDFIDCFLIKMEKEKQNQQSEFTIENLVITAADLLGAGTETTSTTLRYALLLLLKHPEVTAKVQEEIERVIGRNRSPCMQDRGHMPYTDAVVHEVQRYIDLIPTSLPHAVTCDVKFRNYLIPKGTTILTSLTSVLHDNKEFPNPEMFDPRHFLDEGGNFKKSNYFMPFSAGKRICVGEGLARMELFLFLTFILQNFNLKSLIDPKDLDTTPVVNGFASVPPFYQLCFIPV

[25] = reduction of Shn3 3'UTR-driven luciferase in osteoblasts – cell-based, Clone20 osteoblasts, firefly luciferase, cherry-picked, dose response (AID 624132); type: functional;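 note: firefly luciferase luminescence from reporter carrying the Shn3 3'UTR in osteoblasts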
[26] = loss of viability in HepG2 cells – cell-based, CellTiter-Glo, cherry-picked, cytotoxicity control for Shn3 inhibitor project, dose response (AID 624134); type: functional
[27] = system: INS1; experiment: INS-1E survival protection against cytokine death – cell-based, luminescence, retest, dose response (AID 449756); type: functional; settings: Rattus norvegicus;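 note: cell death triggered by IL-1 beta plus TNF-alpha plus IFN-gamma mixture; protective hits raise ATP signal compared with cytokine alone wells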
[28] = non-specific 3'UTR reporter inhibition in Clone20-Shn3RL – cell-based, Renilla luciferase, cherry-picked, counter-screen for Shn3 inhibitor project, dose response (AID 624133); type: functional
[29] = target: T6, Ubiquitin-conjugating enzyme E2 N (Homo sapiens, UniProt P61088); type: functional;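 note: Dose-response confirmation in a TR-FRET assay detecting UBC13-driven polyubiquitin chain formation, inhibition measured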
T6 sequence (P61088 whole entry): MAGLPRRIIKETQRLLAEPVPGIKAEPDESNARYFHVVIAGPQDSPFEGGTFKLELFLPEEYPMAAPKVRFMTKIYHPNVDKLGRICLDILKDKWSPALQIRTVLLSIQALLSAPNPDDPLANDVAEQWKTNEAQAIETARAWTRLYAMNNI

COc1cc(CNCCc2ccccc2F)ccc1OCc1ccc(Cl)nc1
IC50 [1]: 28.7 µM (inactive)
EC50 [2]: 2.83 µM (active)
CC50 [3]: > 40 µM (active)
EC50 [4]: 11.1 µM (inactive)
IC50 [5]: 9.47 µM (active)

CCN1C(=O)c2cccc3c(S(=O)(=O)Nc4ccccc4OC)ccc1c23
EC50 [6]: 7.94 µM (active)
EC50 [7]: 5.96 µM (active)

Cc1nc2ccc(NC(=O)c3cc([N+](=O)[O-])cc([N+](=O)[O-])c3Cl)cc2s1
IC50 [8]: 59.6 µM (active)
IC50 [9]: 2.23 µM (active)
IC50 [10]: 59.9 µM (active)
IC50 [11]: 2.54 µM (active)
IC50 [12]: 5.15 µM (active)

Clc1ccc(CN2CCN(c3ncnc4scc(-c5cccs5)c34)CC2)cc1
IC50 [13]: 2.12 µM (active)
IC50 [14]: 2.39 µM (active)

Cn1nc(-c2ccc(Cl)cc2)c2cc(C(=O)NCCCN3CCOCC3)sc21
AC50 [15]: 2.03 µM (active)
CC50 [3]: > 40 µM (active)
IC50 [16]: > 100 µM (active)

C[n+]1c(-c2ccccc2)cc(CCCCc2cc(-c3ccccc3)[n+](C)c(-c3ccccc3)c2)cc1-c1ccccc1.[O-][Cl+3]([O-])([O-])[O-].[O-][Cl+3]([O-])([O-])[O-]
IC50 [13]: 4.7 µM (active)
IC50 [14]: 2.72 µM (active)
EC50 [17]: > 160 µM (inactive)

C[C@@H]1CN([C@H](C)CO)C(=O)c2cc(NC(=O)Nc3ccc(F)cc3)ccc2O[C@@H](C)CCCCO[C@H]1CN(C)S(=O)(=O)c1ccc(Cl)cc1
AC50 [18]: 5.81 µM (active)
AC50 [19]: 6.11 µM (active)
AC50 [20]: > 70 µM (inactive)

O=C(N[C@H](C(=O)N1CCC[C@H]1C(=O)NCCc1ccccc1Cl)C1CCCCC1)C1CC1
IC50 [1]: > 29.9 µM (inactive)
EC50 [2]: 12.1 µM (inactive)
EC50 [4]: > 29.9 µM (inactive)
IC50 [5]: 8.99 µM (active)

COc1ncnc2c1ncn2CCCNCC(C)c1ccccc1 (stereo unspecified)
IC50 [1]: > 29.9 µM (inactive)
EC50 [2]: 3.84 µM (active)
EC50 [4]: > 29.9 µM (inactive)
IC50 [5]: 12.8 µM (inactive)

Cc1ccc([N+](=O)[O-])cc1/N=N/c1c(-c2ccc([N+](=O)[O-])cc2)[nH]n(C(N)=S)c1=O
EC50 [21]: > 260 µM (inactive)
IC50 [12]: 1.18 µM (active)

CO[C@@H]1CN(C)C(=O)c2cc(NC(=O)c3nc4ccccc4s3)ccc2OC[C@H](C)NC[C@H]1C
AC50 [18]: 0.437 µM (active)
AC50 [22]: 10 µM (active)

O=C(N/N=C/c1cccc(C(F)(F)F)c1)C1CCN(c2ncc(C(F)(F)F)cc2Cl)CC1
AC50 [23]: inconclusive
AC50 [24]: inconclusive

COc1ccc(Nc2nc(N3CCCC3)c3ccccc3n2)cc1
IC50 [1]: 19.7 µM (inactive)
AC50 [25]: 3.67 µM (active)
EC50 [2]: > 3.32 µM (active)
EC50 [4]: > 29.9 µM (inactive)
AC50 [26]: 8.46 µM (active)
AC50 [27]: 3.07 µM (active)
AC50 [28]: 5.37 µM (active)
IC50 [5]: 7.19 µM (active)
IC50 [29]: > 20 µM (inactive)
